# Measurements taken from ChEMBL document CHEMBL3120135, “Inhibition of glutamate racemase by substrate-product analogues” (Bioorg Med Chem Lett, 2014).
# What was measured:
# [1] = test system: Fusobacterium nucleatum; assay: Inhibition of Fusobacterium nucleatum recombinant N-terminal hexahistidine-tagged glutamate racemase expressed in Escherichia coli BL21 (DE3) using L-glutamate as substrate at 64 mM by circular dichroism based assay
# [2] = test system: Fusobacterium nucleatum; assay: Inhibition of Fusobacterium nucleatum recombinant N-terminal hexahistidine-tagged glutamate racemase expressed in Escherichia coli BL21 (DE3) using L-glutamate as substrate at 40 mM by circular dichroism based assay
# [3] = Inhibition of Fusobacterium nucleatum recombinant N-terminal hexahistidine-tagged glutamate racemase expressed in Escherichia coli BL21 (DE3) using L-glutamate as substrate by circular dichroism based assay
# [4] = test system: Fusobacterium nucleatum; assay: (§1) Mixed-type inhibition of Fusobacterium nucleatum recombinant N-terminal hexahistidine-tagged glutamate racemase expressed in Escherichia coli BL21 (DE3) using L-glutamate as substrate by Michaelis-Menten plot analysis
# [5] = as §1
# [6] = Noncompetitive inhibition of Bacillus subtilis glutamate racemase
# [7] = Inhibition of Bacillus subtilis glutamate racemase
# [8] = test system: Fusobacterium nucleatum; assay: Inhibition of Fusobacterium nucleatum recombinant N-terminal hexahistidine-tagged glutamate racemase expressed in Escherichia coli BL21 (DE3) using L-glutamate as substrate at 50 mM by circular dichroism based assay
# [9] = Partial noncompetitive inhibition of Fusobacterium nucleatum recombinant N-terminal hexahistidine-tagged glutamate racemase expressed in Escherichia coli BL21 (DE3) using L-glutamate as substrate by Michaelis-Menten plot analysis
smiles,measurement,setting,value
NC(CCP(=O)(O)O)C(=O)O (racemic),inhibition,[1],15%
NC1(C(=O)O)CCS(=O)(=O)CC1,inhibition,[2],30%
same,IC50,[3],215 mM
O=C1CCS(=O)(=O)CC1,alphaKi,[4],28 mM
same,Ki,[5],18.4 mM
same,IC50,[3],21.2 mM
O=C1CCP(=O)(O)CC1,IC50,[3],47.7 mM
O=C(O)c1cccc(C(=O)O)n1 [DIPICOLINIC ACID],Ki,[6],0.092 mM
same,Ki,[7],2.7 mM
O=C(O)CCP(=O)(O)CCC(=O)O,inhibition,[8],40%
same,IC50,[3],60.4 mM
NC1(C(=O)O)CCP(=O)(O)CC1 (stereo not drawn),Ki,[9],3.1 mM
same,IC50,[3],24.1 mM
